Laboratory results taken from paper PMC5889910, “β-Carboline Silver Compound Binding Studies with Human Serum Albumin: A Comprehensive Multispectroscopic Analysis and Molecular Modeling Study” (Bioinorganic Chemistry and Applications, 2018).

Experiments:
[1] = molecular target: T1, human serum albumin (HSA) (Homo sapiens, UniProt P02768); assay: Fluorescence quenching titration of HSA (Stern–Volmer analysis); format: binding; conditions: for K SV, Stern–Volmer quenching constant / K q, bimolecular quenching rate constant / K, binding constant / n, number of binding sites / redshift at the maximal emission wavelength of Tyr and Trp residues of HSA: HSA 5 µM; for K SV, Stern–Volmer quenching constant: 20 mM phosphate buffer pH 7.4, 25°C, excitation 295 nm; for K q, bimolecular quenching rate constant: Kq = KSV/τ0, τ0 = 10^−8 s, 25°C; for K, binding constant / n, number of binding sites: modified Stern–Volmer equation, pH 7.4, 25°C; for ∆G, standard free energy change of binding: ΔG = −2.303 RT logK; for redshift at the maximal emission wavelength of Tyr and Trp residues of HSA: increasing compound concentration
T1 construct: I (residues 1–195), II (196–383), and III (384–585); purchased Sigma
Description: (§1) The samples of HSA were prepared in 20 mM phosphate buffer (pH 7.4), whereas silver complexes (1 mM) stock solution were prepared in DMSO and further diluted in 20 mM phosphate buffer to reach the desired concentration. In all the samples, the final concentration of DMSO was not more than 1%. The concentration of HSA was determined using the Beer–Lambert law with the molar extinction coefficient of 36500 M^−1·cm^−1 at 280 nm. To study structural changes in HSA by the addition of [Ag(I)(Hnor)2](anion) compounds, the UV absorption spectra were measured, by variation of the concentration of the [Ag(I)(Hnor)2](anion) compounds, while keeping the concentration of HSA constant. UV absorption spectra, from 240 nm to 320 nm, were recorded on a Perkin–Elmer Lambda 45 spectrophotometer at 25°C. Quartz cuvettes of 1 cm path length were used for the measurements. Fluorescence measurements were performed on a Hitachi spectrofluorometer (Model F 7000) equipped with a PC. The fluorescence spectra were collected at 25°C with a path length cell of 1 cm. The slit width used was 5 nm with a protein concentration of 5 µM. The used excitation wavelength for the protein was 295 nm.
(§2) All the spectra were recorded after equilibration of the reaction mixture for 5 min.
The interaction between metal compounds and proteins has been widely investigated by using fluorescence spectroscopies. The luminescence response of HSA, upon addition of different concentrations of Ag(I) compounds, was studied in 20 mM phosphate buffer by using an emission titration experiment. Preliminary luminescence studies of the four starting Ag compounds 1–4 have been reported earlier by some of us. The excitation at 290 nm for all four compound results in a strong luminescence band at around 370 nm. The fluorescence studies of the ligand “Hnor” as well as the free silver salt, “AgNO3,” were also studied under the same conditions to compare the effect of separate entities with a combination of the two. Upon excitation at 295 nm, fluorescence intensity around 340 nm is known to reflect the changes of the tryptophan residue microenvironment. […] In Figure S3, similar data are presented for compounds 2–4, with only marginal differences upon anion variation.
The interaction of the Ag compounds with HSA was quantified; the Stern–Volmer equation has been employed:(1) F0/F=1+KSVQ=1+Kqτ0Q, where F 0 and F are the steady-state fluorescence intensities in the absence and presence of quencher at 340 nm, respectively. K sv is the Stern–Volmer quenching constant, K q stands for bimolecular quenching constant, τ 0 is the lifetime of the fluorophore in the absence of quencher, and [Q] is the concentration of quencher (i.e., the Ag compound). By calculating the quenching rate constants, K q, one can distinguish between the static quenching and the dynamic quenching, and this was evaluated by using the following equation:(2) Kq=KSV/τ0.
The value of tau(zero), τ 0, for biopolymers is known to be 10^−8 s. The Stern–Volmer quenching constant (K sv) for the fluorometric titration of the Ag(I) compounds into HSA solution was calculated from the linear relationship between F 0/F and [Ag(I)(Hnor)2]ClO4 (Figure 5) and enlisted in Table 1. In Figure S4, similar data are presented for compounds 2–4, confirming the above observations.
The equilibrium between free and bound molecules, when small molecules bind independently to a set of similar sites on a macromolecule, was ascertained by a modified Stern–Volmer equation [42]:(3) logF0−F/F=logK+n logQ, where K and n are the binding constant and the number of binding sites, respectively. A plot of log(F 0 − F/F) versus log[Q] was used to determine the value of K and n (inset in Figure 5). Several forces, like electrostatic, hydrogen bonds, weak van der Waals, hydrophobic, and steric contacts, can be thought of being responsible for the interaction between the albumin and Ag compounds. […]

[2] = molecular target: T1, human serum albumin (HSA); assay: Far-UV circular dichroism of HSA, α-helix content; format: binding; set-up: unit of the concentration uncertain; conditions: HSA 20 µM, free HSA 67.03
Description: CD measurements were carried out on a Jasco spectropolarimeter (Model J-815) equipped with a microcomputer. The instrument was calibrated with D-10-camphorsulfonic acid. All the CD measurements were performed at 25°C with a thermostatically controlled cell holder, attached to a Neslab RTE-110 water bath with an accuracy of ±0.1°C. Spectra were collected with a scan speed of […] and a response time of 1 s. Each spectrum was taken as the average of three scans. The far-UV CD spectra were measured at a protein concentration of 20 µM at a path length of 1 cm.
as §2
The CD signal, expressed in millidegree, obtained over the wavelength range of 190–250 nm, was converted to a mean residue ellipticity (MRE, θ), using the following conversion:(5) MRE=θobs mdeg/10×n×Cp×l, where θ obs is the CD in millidegree, the number of amino acid residues (585) is given by n, “l” is the path length (cm), and C p is the molarity. The unit of MRE is deg·cm^2·dmol^−1.

[3] = test system: two different cancer cell lines; set-up: method as in PMID 25042730; conditions: previous study; cited from earlier work
[4] = molecular target: T1, human serum albumin (HSA); assay: UV absorption spectra of HSA with Ag(I) compounds; format: binding; conditions: HSA 5 µM, with hyperchromism
Description: as §1, §2

[5] = molecular target: T1, human serum albumin (HSA); assay: Fluorescence quenching of HSA with addition of extra anions (KClO4, KNO3); format: binding; conditions: for K SV / K, binding constant / n, number of binding sites: HSA 5 µM
Description: as §1
Given the fact that the highest anticancer activity and also the most substantial HSA interaction takes place in case of the perchlorate and nitrate salts, it was decided to add extra perchlorate (and also nitrate) for all cases and to study the effect on the binding affinity. So, we carried out two sets of experiments and studied the binding propensity of Ag(I) compounds with HSA. In one experiment, the extra ClO4 ^− anion was added in a 1 : 4 ratio, compared to the Ag compound. In a second experiment, we used additional nitrate together with the Ag(I) compounds. Details are given in Figures 6 and 7, and the quite similar details for the other 3 compounds are presented in Figures S5 and S6 in Supplementary Materials.
To determine the role of only the anions (i.e., without Ag and Hnor), we also used KClO4 and KNO3 and studied their HSA binding by adding variable amounts of anions to the concentration maximum used in the experiments. […] When the extra anions + compounds were titrated, the results obtained did show an exponential increase in binding affinity of the Ag(I) compounds.
The binding strength was evaluated by calculating the Stern–Volmer constant (K sv), a number of the binding sites (n) and Gibbs free energy (ΔG); (Table 2). […] However, no correlation with the size of these four anions is seen.

[6] = compound concentration 20 (unit uncertain)
[7] = compound concentration 40 (unit uncertain)
[8] = compound concentration 60 (unit uncertain)
[9] = compound concentration 80 (unit uncertain)
[10] = compound concentration 100 (unit uncertain)
[11] = Set A: +extra ClO4− (KClO4, 1:4 ratio)
[12] = Set B: +extra NO3− (KNO3, 1:4 ratio)

T1 sequence (P02768 25-609): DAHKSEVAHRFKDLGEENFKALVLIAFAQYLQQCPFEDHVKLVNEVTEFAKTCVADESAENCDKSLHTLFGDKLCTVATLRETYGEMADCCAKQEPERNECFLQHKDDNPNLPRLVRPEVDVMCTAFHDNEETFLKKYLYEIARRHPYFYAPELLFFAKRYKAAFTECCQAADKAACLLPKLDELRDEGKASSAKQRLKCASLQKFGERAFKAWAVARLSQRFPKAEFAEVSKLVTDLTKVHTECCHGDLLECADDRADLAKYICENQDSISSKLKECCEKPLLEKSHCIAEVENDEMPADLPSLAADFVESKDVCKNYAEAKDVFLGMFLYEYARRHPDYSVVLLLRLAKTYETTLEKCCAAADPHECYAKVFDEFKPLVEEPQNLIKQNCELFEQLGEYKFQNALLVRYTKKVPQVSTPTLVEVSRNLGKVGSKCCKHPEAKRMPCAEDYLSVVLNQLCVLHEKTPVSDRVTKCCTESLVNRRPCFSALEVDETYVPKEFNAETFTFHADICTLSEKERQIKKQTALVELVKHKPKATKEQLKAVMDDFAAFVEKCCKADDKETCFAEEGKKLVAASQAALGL

SMILES | K SV, Stern–Volmer quenching constant [1] | K q, bimolecular quenching rate constant [1] | K, binding constant [1] | n, number of binding sites [1] | ∆G, standard free energy change of binding [1] [kcal/mol] | % α-helix of HSA [2, 6] [%] | % α-helix of HSA [2, 7] [%] | % α-helix of HSA [2, 8] [%] | % α-helix of HSA [2, 9] [%] | % α-helix of HSA [2, 10] [%] | redshift (bathochromic effect) of HSA UV absorbance [4] [nm] | ∆G [5, 11] [kcal/mol] | K SV [5, 11] | K, binding constant [5, 11] | n, number of binding sites [5, 11] | ∆G [5, 12] [kcal/mol] | K SV [5, 12] | K, binding constant [5, 12] | n, number of binding sites [5, 12] | redshift at the maximal emission wavelength of Tyr and Trp residues of HSA [1] [nm] | further results
O=[N+]([O-])[O-].[Ag+] [AgNO3, reference compound] | 3.10 10^5 M^−1 | 31.0 10^12 M^−1·s^−1 | 1.94 10^6 M^−1 | 1.1 | -8.576 | – | – | – | – | – | – | – | – | – | – | – | – | – | – | – | –
[Ag+].[O-][Cl+3]([O-])([O-])[O-].c1ccc2c(c1)[nH]c1cnccc12.c1ccc2c(c1)[nH]c1cnccc12 [Compound 1, [Ag(Hnor)2](ClO4)] | 5.37 10^5 M^−1 | 53.7 10^12 M^−1·s^−1 | 3.74 10^6 M^−1 | 1.1 | -8.963 | 64.07 | 62.23 | 58.59 | 50.18 | 35.63 | 7 | -15.33 | 2.21 10^7 M^−1 | 17.2 10^10 M^−1 | 1.77 | -14.4 | 2.06 10^7 M^−1 | 3.64 10^10 M^−1 | 1.64 | 7 | anticancer activity [3]: comparable to cisplatin
O=[N+]([O-])[O-].[Ag+].c1ccc2c(c1)[nH]c1cnccc12.c1ccc2c(c1)[nH]c1cnccc12 [Compound 2, [Ag(Hnor)2](NO3)] | 5.34 10^5 M^−1 | 53.4 10^12 M^−1·s^−1 | 3.64 10^6 M^−1 | 1.0 | -8.948 | 62.85 | 61.61 | 58.41 | 52.02 | 42.73 | 5 | – | 1.29 10^7 M^−1 | 6.05 10^10 M^−1 | 1.58 | -13.4 | 1.24 10^7 M^−1 | 0.66 10^10 M^−1 | 1.53 | 5 | –
CC#N.F[P-](F)(F)(F)(F)F.[Ag+].c1ccc2c(c1)[nH]c1cnccc12.c1ccc2c(c1)[nH]c1cnccc12 [Compound 3, [Ag(Hnor)2(MeCN)](PF6)] | 4.53 10^5 M^−1 | 45.3 10^12 M^−1·s^−1 | 0.55 10^6 M^−1 | 1.2 | -7.823 | 63.57 | 62.57 | 60.37 | 56.31 | 47.18 | 5 | -13.18 | 0.84 10^7 M^−1 | 0.46 10^10 M^−1 | 1.55 | -12.19 | 0.80 10^7 M^−1 | 0.08 10^10 M^−1 | 1.41 | 4 | –
